# Values quoted from earlier work as cited in US7816398B2, “Fatty alcohol drug conjugates” (Luitpold Pharmaceuticals, Inc., priority 2001, dated 2010).
# Conditions: relative to irinotecan
structure (smiles),measurement,value
CCc1c2c(nc3ccc(O)cc13)-c1cc3c(c(=O)n1C2)COC(=O)[C@]3(O)CC [SN-38],times more potent than Irinotecan,~100 times
